Columns and labels:
[1] = system: parasympathetic neurons obtained by culturing in the differentiation-inducing medium 3 (NDM+PMA+RA); conditions: nicotine 1 μM; neurons induced in NDM+PMA+RA, 13th to 37th day from start of culturing
Method: Furthermore, response to nicotine stimulation for parasympathetic neurons obtained by culturing in the differentiation-inducing medium 3 (NDM+PMA+RA) was assessed by intracellular calcium imaging. 1 mg/mL Fluo-4 AM (Invitrogen, F14201)/DMSO was directly added to a medium on the differentiation induction culture 24th day at a final concentration of 5 μg/mL. After incubation in an incubator (37° C., 5% CO2) for 30 minutes, the medium was removed and replaced with Ringer's solution (149 mM NaCl, 2.8 mM KCl, 2 mM CaCl2, 1 mM MgCl2, 10 mM HEPES, 10 mM D-(+)-glucose [pH 7.4]), and changes in the intracellular calcium concentrations were measured by detecting changes in the fluorescence intensity. For the measurement, 300 frames were photographed at a frame rate of 2 fps using an Olympus microscope (IX81), EMCCD (Andor iXon), and MetaMorph Software (Molecular Devices). Additionally, nicotine stimulation was performed by adding nicotine to Ringer's solution at a final concentration of 1 μM. ImageJ was used for data analysis after measurement.

[2] = system: autonomic neural progenitor cells; test: Induction of autonomic neural progenitor cells to differentiate into parasympathetic neurons, immune cell staining (TH, ChAT, PHOX2B, MAP2); type: cell-based, Human
Method: A 24-well plate coated with poly-L-ornithine and laminin was prepared by the following procedure. The plate was coated for one hour with a PLO solution (20 μg/mL) prepared with DW, washed once with DW, and coated for two hours with a laminin solution (5 μg/mL) prepared with PBS. Subsequently, the N2 medium was supplemented with 10 μM FSK, 10 ng/mL BDNF, 10 ng/mL GDNF, 10 ng/mL NT-3, 10 ng/mL NGF, and 50 μg/mL Ascorbic Acid (all final concentrations) to prepare a neural differentiation medium (NDM).
The following four kinds of differentiation-inducing media were prepared using NDM:
Differentiation-inducing medium 1: NDM+10 ng/mL PMA (final concentration)
Differentiation-inducing medium 2: NDM+1 μM RA (final concentration)
Differentiation-inducing medium 3: NDM+10 ng/mL PMA+1 μM RA (both final concentrations)
Differentiation-inducing medium 4: NDM only (by a known method)
The autonomic neural progenitor cells obtained by the above-described Step 5 were washed once with PBS, followed by addition of TrypLE Express Enzyme (250 μL/well), and cells were exfoliated by incubating the medium for five minutes. 10% FBS-containing DMEM was added to terminate the enzyme reaction, and the cells were collected in a centrifuge tube. After the medium was centrifuged at 200×g for four minutes, the supernatant was removed, cells were suspended with NDM, and the cells were counted. […] The media cultured for at least 20 days from the start of culturing with the differentiation-inducing media 1 to 4 were analyzed by immune staining and intracellular calcium imaging following the procedure described below. […]
The primary antibody solution was removed, and the plate was washed twice with 0.2% Tween 20/PBS, followed by addition of a secondary antibody/Can Get Signal Solution A (1000-fold diluted Alexa Fluro488 or 1000-fold diluted Alexa Fluor555) or 3000-fold diluted Hoechst 33342 solution, and the mixture was allowed to stand for one hour at room temperature. The secondary antibody solution was removed, and the plate was washed twice with 0.2% Tween 20/PBS and then observed under a fluorescence microscope.

GATA3 = conditions: Yamashita et al. 2002; Th2 cell differentiation; cited from earlier work
[3] = differentiation induction 13th to 87th day from start of culturing, 10 ng/mL PMA and/or 1 μM RA in NDM, compared with NDM only (FIG. 2)

CN1CCCC1c1cccnc1 (single isomer, unassigned; (-)) [nicotine, (−)-Nicotine]
response to nicotine stimulation (intracellular calcium, Fluo-4 AM fluorescence) [1]: strong response

CCCCCCCCCCCCCC(=O)O[C@@H]1[C@@H](C)[C@@]2(O)[C@@H](C=C(CO)C[C@]3(O)C(=O)C(C)=C[C@@H]23)[C@@H]2C(C)(C)[C@]12OC(C)=O [PMA, Phorbol 12-myristate 13-acetate]
differentiation induction efficiency ([2]; 13th to 87th day, single additive in NDM, compared with NDM only): reduced | ChAT positive cells (parasympathetic neuron marker) [2, 3]: markedly reduced | TH positive cells (sympathetic neuron marker) [2, 3]: markedly reduced | expression of transcription factor GATA3 (GATA3): enhance

From US11359178B2, “Method for producing parasympathetic neurons” (NATIONAL INSTITUTE OF ADVANCED INDUSTRIAL SCIENCE AND …, priority 2018, dated 2022)
